Experimental data: patent US20020110590A1, “Pharmaceutical formulation containing DEMO for the treatment of cancer” (Ilex Oncology, Inc., priority 1996, published 2002)

Legend:
[1] = healthy men; cited from earlier work
[2] = any route of drug administration; cited from earlier work
[3] = oral administration; cited from earlier work
[4] = test system: advanced solid tumors or lymphomas; conditions: patients with advanced solid tumors or lymphomas; cited from earlier work
polyamine pools = conditions: cited from earlier work
Solubility of DFMO = type: physicochemical
[5] = target: T1, ornithine decarboxylase (ODC) (Homo sapiens, UniProt P11926); conditions: reported by some (Danzin, 1987); cited from earlier work
T1 sequence (P11926 1-461): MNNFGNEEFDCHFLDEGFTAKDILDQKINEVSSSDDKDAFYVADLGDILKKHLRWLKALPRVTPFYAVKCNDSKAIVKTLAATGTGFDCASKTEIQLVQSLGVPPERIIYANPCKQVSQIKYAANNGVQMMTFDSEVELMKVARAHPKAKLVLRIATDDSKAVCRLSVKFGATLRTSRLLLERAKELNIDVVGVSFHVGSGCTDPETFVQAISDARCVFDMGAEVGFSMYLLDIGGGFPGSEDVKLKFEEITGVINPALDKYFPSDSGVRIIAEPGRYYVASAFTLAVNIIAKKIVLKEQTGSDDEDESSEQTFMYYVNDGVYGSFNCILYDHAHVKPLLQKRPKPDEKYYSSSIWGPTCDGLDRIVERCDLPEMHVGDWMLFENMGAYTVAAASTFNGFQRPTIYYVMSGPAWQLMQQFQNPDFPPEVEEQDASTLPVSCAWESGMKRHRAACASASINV

Row | SMILES | elimination half-life t½ [1] | share of drug elimination accounted for by renal clearance [1] [%] | therapeutic responses [2] | maximum tolerated dose [3] | therapeutic responses [4] | minimum effective dose (MED) in significantly reducing polyamine pools in vivo (polyamine pools) | water solubility (Solubility of DFMO) | solubility of DFMO at a neutral pH (Solubility of DFMO; neutral pH versus acid) | enantiomer responsible for ODC inhibition [5]
1 | NCCC[C@](N)(C(=O)O)C(F)F (racemic) [DFMO, alpha-difluoromethylornithine] | about 3.5 hours | 83 | No therapeutic responses | about 12 g/m^2/day | No therapeutic responses | about 0.43 g/day | very water-soluble | relatively lower solubility | 
2 | NCCC[C@](N)(C(=O)O)C(F)F [(−)-DFMO, alpha-difluoromethylornithine] |  |  |  |  |  |  |  |  | enantiomer primarily responsible for ODC inhibition
